Values belong to the compound of their own block, whether it stands above or below them. The source made the active and inactive calls. The calls are words filed in the database; no cut-off is given here.
Key:
[1] = target: T1, von Hippel-Lindau disease tumor suppressor/Protein arginine N-methyltransferase 5 (Homo sapiens, UniProt O14744+P40337); experiment: PROTAC activity at PRMT5/VHL in human MDA-MB-468 cells assessed as degradation measured at 5 uM after 72 hrs by Western blot analysis; format: cell-based
MDA-MB-468 [2] = experiment: Cytotoxicity against human MDA-MB-468 cells assessed as cell viability measured after 7 days by CCK-8 assay; format: functional; conditions: MDA-MB-468, 168 h, time 7 day
[3] = target: T2, von Hippel-Lindau disease tumor suppressor/Methylosome protein WDR77 (Homo sapiens, UniProt Q9BQA1+P40337); experiment: PROTAC activity at MEP50/VHL in human MDA-MB-468 cells assessed as degradation measured at 5 uM after 72 hrs by Western blot analysis; format: cell-based
[4] = target: T2, von Hippel-Lindau disease tumor suppressor/Methylosome protein WDR77; experiment: PROTAC activity at MEP50/VHL in human PC-3 cells assessed as degradation at 0.5 to 5 uM after 7 hrs by Western blot analysis; format: cell-based; conditions: dose 0.5-5 µM
[5] = target: T1, von Hippel-Lindau disease tumor suppressor/Protein arginine N-methyltransferase 5; experiment: PROTAC activity at PRMT5/VHL in human MDA-MB-468 cells assessed as degradation measured at 0.5 uM after 72 hrs by Western blot analysis; format: cell-based
[6] = target: T1, von Hippel-Lindau disease tumor suppressor/Protein arginine N-methyltransferase 5; experiment: PROTAC activity at PRMT5/VHL in human PC-3 cells assessed as degradation at 0.5 to 5 uM after 7 hrs by Western blot analysis; format: cell-based; conditions: dose 0.5-5 µM
[7] = target: T2, von Hippel-Lindau disease tumor suppressor/Methylosome protein WDR77; experiment: PROTAC activity at MEP50/VHL in human MDA-MB-468 cells assessed as degradation measured at 0.5 uM after 72 hrs by Western blot analysis; format: cell-based
[8] = target: Protein arginine N-methyltransferase 5 (Homo sapiens, UniProt O14744); experiment: Inhibition of PRMT5 (unknown origin) using S-adenosylmethionine (SAM) using as substrate preincubated for 30 mins followed by substrate addition measured after 60 mins by microplate reader
[9] = target: T1, von Hippel-Lindau disease tumor suppressor/Protein arginine N-methyltransferase 5; experiment: PROTAC activity at PRMT5/VHL in human MDA-MB-468 cells assessed as degradation at 2 uM measured up to 12 hrs by Western blot analysis; format: cell-based
[10] = target: T1, von Hippel-Lindau disease tumor suppressor/Protein arginine N-methyltransferase 5; experiment: PROTAC activity at PRMT5/VHL in human MCF7 cells assessed as degradation at 0.5 uM after 3 days by Western blot analysis; format: cell-based; conditions: time 3.0 day
[11] = target: T1, von Hippel-Lindau disease tumor suppressor/Protein arginine N-methyltransferase 5; experiment: PROTAC activity at PRMT5/VHL in human MCF7 cells assessed as degradation at 5 uM after 3 days by Western blot analysis; format: cell-based; conditions: time 3.0 day
[12] = target: T1, von Hippel-Lindau disease tumor suppressor/Protein arginine N-methyltransferase 5; experiment: PROTAC activity at PRMT5/VHL in human MDA-MB-468 cells assessed as maximal degradation at 5 uM measured after 72 hrs by Western blot analysis relative to control; format: cell-based
[13] = target: T2, von Hippel-Lindau disease tumor suppressor/Methylosome protein WDR77; experiment: PROTAC activity at MEP50/VHL in human MCF7 cells assessed as degradation at 0.5 uM after 3 days by Western blot analysis; format: cell-based; conditions: time 3.0 day
[14] = target: T2, von Hippel-Lindau disease tumor suppressor/Methylosome protein WDR77; experiment: PROTAC activity at MEP50/VHL in human MCF7 cells assessed as degradation at 5 uM after 3 days by Western blot analysis; format: cell-based; conditions: time 3.0 day
[15] = target: T2, von Hippel-Lindau disease tumor suppressor/Methylosome protein WDR77; experiment: PROTAC activity at MEP50/VHL in human MDA-MB-468 cells assessed as degradation at 2 uM measured up to 48 hrs by Western blot analysis; format: cell-based
[16] = target: T2, von Hippel-Lindau disease tumor suppressor/Methylosome protein WDR77; experiment: PROTAC activity at MEP50/VHL in human MDA-MB-468 cells assessed as maximal degradation at 5 uM measured after 72 hrs by Western blot analysis relative to control; format: cell-based
MDA-MB-468 [17] = experiment: Inhibition of sDMA (symmetric dimethylarginine) level in human MDA-MB-468 cells at 0.5 uM measured after 72 hrs by Western blot analysis; format: functional, cell-based
MDA-MB-468 [18] = experiment: Inhibition of sDMA (symmetric dimethylarginine) level in human MDA-MB-468 cells at 5 uM measured after 72 hrs by Western blot analysis; format: functional, cell-based
MDA-MB-468 [19] = experiment: Inhibition of sDMA (symmetric dimethylarginine) level in human MDA-MB-468 cells at 2 uM measured after 7 days by Western blot analysis; format: functional, cell-based; conditions: time 7.0 day
[20] = target: T1, von Hippel-Lindau disease tumor suppressor/Protein arginine N-methyltransferase 5; experiment: PROTAC activity at […]/VHL in human MDA-MB-468 cells assessed as relative protein level at 0.5 uM measured after 24 hrs by Western blot analysis; format: cell-based
[21] = target: T1, von Hippel-Lindau disease tumor suppressor/Protein arginine N-methyltransferase 5; experiment: PROTAC activity at PRMT5/VHL in human MDA-MB-468 cells assessed as relative protein level at 5 uM measured after 24 hrs by Western blot analysis; format: cell-based
[22] = target: T2, von Hippel-Lindau disease tumor suppressor/Methylosome protein WDR77; experiment: PROTAC activity at MEP50/VHL in human MDA-MB-468 cells assessed as relative protein level at 5 uM measured after 24 hrs by Western blot analysis; format: cell-based
[23] = target: T2, von Hippel-Lindau disease tumor suppressor/Methylosome protein WDR77; experiment: PROTAC activity at MEP50/VHL in human MDA-MB-468 cells assessed as relative protein level at 0.5 uM measured after 24 hrs by Western blot analysis; format: cell-based
[24] = target: T1, von Hippel-Lindau disease tumor suppressor/Protein arginine N-methyltransferase 5; experiment: PROTAC activity at PRMT5/VHL in human MCF-10A cells assessed as degradation at 0.5 to 5 uM after 3 days by Western blot analysis; format: cell-based; conditions: dose 0.5-5 µM, time 3.0 day
[25] = PROTAC activity at PRMT5/VHL in human PNT2 cells assessed as degradation at 0.5 to 5 uM after 3 days by Western blot analysis; conditions: dose 0.5-5 µM, time 3.0 day
MCF-10A [26] = experiment: Cytotoxicity against human MCF10A cells assessed as cell viability up to 15 uM measured after 5 days by CCK-8 assay; format: toxicity, cell-based; conditions: 120 h, time 5 day
[27] = target: T2, von Hippel-Lindau disease tumor suppressor/Methylosome protein WDR77; experiment: PROTAC activity at MEP50/VHL in human MDA-MB-468 cells assessed as degradation measured at 0.5 to 5 uM after 24 hrs by Western blot analysis; format: cell-based; conditions: dose 0.5-5 µM
[28] = target: T2, von Hippel-Lindau disease tumor suppressor/Methylosome protein WDR77; experiment: PROTAC activity at MEP50/VHL in human PNT2 cells assessed as degradation at 0.5 to 5 uM after 3 days by Western blot analysis; format: cell-based; conditions: dose 0.5-5 µM, time 3.0 day
MCF-10A [29] = experiment: PROTAC activity at MEP50/VHL in human MCF-10A cells assessed as degradation at 0.5 to 5 uM after 3 days by Western blot analysis; format: cell-based; conditions: dose 0.5-5 µM, time 3.0 day
[30] = target: T1, von Hippel-Lindau disease tumor suppressor/Protein arginine N-methyltransferase 5; experiment: PROTAC activity at PRMT5/VHL in human MDA-MB-468 cells assessed as degradation measured at 0.5 to 5 uM after 24 hrs by Western blot analysis; format: cell-based; conditions: dose 0.5-5 µM

T1 sequence (O14744 whole entry, looked up): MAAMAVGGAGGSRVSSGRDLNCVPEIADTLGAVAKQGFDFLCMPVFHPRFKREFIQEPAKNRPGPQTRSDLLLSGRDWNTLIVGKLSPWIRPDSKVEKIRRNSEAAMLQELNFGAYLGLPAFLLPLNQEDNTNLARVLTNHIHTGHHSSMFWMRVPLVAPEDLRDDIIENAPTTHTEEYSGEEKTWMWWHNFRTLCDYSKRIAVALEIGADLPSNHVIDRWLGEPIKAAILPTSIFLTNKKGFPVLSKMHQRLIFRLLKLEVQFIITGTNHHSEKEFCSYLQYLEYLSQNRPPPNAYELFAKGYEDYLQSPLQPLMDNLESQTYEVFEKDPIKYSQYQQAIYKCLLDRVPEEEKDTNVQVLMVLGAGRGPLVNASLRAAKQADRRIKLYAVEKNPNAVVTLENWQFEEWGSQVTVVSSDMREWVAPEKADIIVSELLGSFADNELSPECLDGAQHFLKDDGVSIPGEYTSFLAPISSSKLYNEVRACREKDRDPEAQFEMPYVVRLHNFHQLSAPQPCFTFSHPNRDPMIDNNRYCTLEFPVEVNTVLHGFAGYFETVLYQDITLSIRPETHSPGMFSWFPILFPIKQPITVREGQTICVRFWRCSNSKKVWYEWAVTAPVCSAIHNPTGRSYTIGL
T1 sequence (P40337 whole entry, looked up): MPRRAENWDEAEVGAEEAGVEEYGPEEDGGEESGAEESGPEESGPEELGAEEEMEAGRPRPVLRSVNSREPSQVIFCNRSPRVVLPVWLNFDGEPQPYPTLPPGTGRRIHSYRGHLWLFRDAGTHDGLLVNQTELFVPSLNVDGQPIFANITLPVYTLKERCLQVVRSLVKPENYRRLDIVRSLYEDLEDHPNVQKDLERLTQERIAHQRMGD
T2 sequence (P40337 whole entry, looked up): as above
T2 sequence (Q9BQA1 whole entry, looked up): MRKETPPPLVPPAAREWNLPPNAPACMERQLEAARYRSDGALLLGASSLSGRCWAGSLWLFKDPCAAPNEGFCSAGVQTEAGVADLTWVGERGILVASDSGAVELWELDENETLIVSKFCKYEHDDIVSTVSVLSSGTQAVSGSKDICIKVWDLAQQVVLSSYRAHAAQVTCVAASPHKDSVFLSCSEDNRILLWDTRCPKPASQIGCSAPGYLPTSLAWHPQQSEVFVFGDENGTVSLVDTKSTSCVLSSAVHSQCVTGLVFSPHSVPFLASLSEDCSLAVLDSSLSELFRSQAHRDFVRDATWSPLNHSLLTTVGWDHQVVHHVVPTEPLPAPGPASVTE
Sequence of Protein arginine N-methyltransferase 5 (O14744 whole entry): as the sequence (O14744 whole entry, looked up) above

Activity [1]: inactive
Activity [3]: inactive
Activity [4]: inactive
Activity [5]: inactive
Activity [6]: inactive
Activity [7]: inactive
SMILES: Cc1ncsc1-c1ccc([C@H](CC(=O)NCCOCCOCCOCCOCCOCCC(=O)N2CCC(Nc3cc(C(=O)NC[C@H](O)CN4CCc5ccccc5C4)ncn3)CC2)NC(=O)[C@@H]2C[C@H](O)CN2C(=O)[C@@H](NC(=O)C2(F)CC2)C(C)(C)C)cc1
GI50 (MDA-MB-468 [2]): 9.9 µM

Activity [20]: Active
Activity [21]: Active
Activity [22]: Active
Activity [23]: Active
SMILES: Cc1ncsc1-c1ccc([C@H](C)NC(=O)[C@@H]2C[C@@H](O)CN2C(=O)[C@@H](NC(=O)CCOCCOCCOCCOCCC(=O)N2CCC(Nc3cc(C(=O)NC[C@H](O)CN4CCc5ccccc5C4)ncn3)CC2)C(C)(C)C)cc1

Activity [20]: Active
Activity [21]: Active
Activity [22]: Active
Activity [23]: Active
SMILES: Cc1ncsc1-c1ccc([C@H](CC(=O)NCCCC(=O)N2CCC(Nc3cc(C(=O)NC[C@H](O)CN4CCc5ccccc5C4)ncn3)CC2)NC(=O)[C@@H]2C[C@@H](O)CN2C(=O)[C@@H](NC(=O)C2(F)CC2)C(C)(C)C)cc1

Activity [20]: Active
Activity [21]: Active
Activity [22]: Active
Activity [23]: Active
SMILES: Cc1ncsc1-c1ccc(CNC(=O)[C@@H]2C[C@@H](O)CN2C(=O)[C@@H](NC(=O)C2(F)CC2)C(C)(C)C)c(OCC(=O)NCCCC(=O)N2CCC(Nc3cc(C(=O)NC[C@H](O)CN4CCc5ccccc5C4)ncn3)CC2)c1

Activity [20]: Active
Activity [21]: Active
Activity [22]: Active
Activity [23]: Active
SMILES: Cc1ncsc1-c1ccc(CNC(=O)[C@@H]2C[C@@H](O)CN2C(=O)[C@@H](NC(=O)C2(F)CC2)C(C)(C)C)c(OCC(=O)NCCOCCC(=O)N2CCC(Nc3cc(C(=O)NC[C@H](O)CN4CCc5ccccc5C4)ncn3)CC2)c1

Activity [20]: Active
Activity [21]: Active
Activity [22]: Active
Activity [23]: Active
SMILES: Cc1ncsc1-c1ccc([C@H](CC(=O)NCC(=O)N2CCC(Nc3cc(C(=O)NC[C@H](O)CN4CCc5ccccc5C4)ncn3)CC2)NC(=O)[C@@H]2C[C@@H](O)CN2C(=O)[C@@H](NC(=O)C2(F)CC2)C(C)(C)C)cc1

Activity [20]: Active
Activity [21]: Active
Activity [22]: Active
Activity [23]: Active
SMILES: Cc1ncsc1-c1ccc([C@H](CC(=O)NCCOCCOCCC(=O)N2CCC(Nc3cc(C(=O)NC[C@H](O)CN4CCc5ccccc5C4)ncn3)CC2)NC(=O)[C@@H]2C[C@@H](O)CN2C(=O)[C@@H](NC(=O)C2(F)CC2)C(C)(C)C)cc1

Continued, compound first:

SMILES: Cc1ncsc1-c1ccc([C@H](C)NC(=O)[C@@H]2C[C@@H](O)CN2C(=O)[C@@H](NC(=O)COCCOCCOCCOCCOCC(=O)N2CC(Nc3cc(C(=O)NC[C@H](O)CN4CCc5ccccc5C4)ncn3)C2)C(C)(C)C)cc1
IC50 [8]: 0.69 µM
Activity [9]: Active
Activity [10]: Active
Activity [11]: Active
Activity [12]: 50%
Activity [13]: Active
Activity [14]: Active
GI50 (MDA-MB-468 [2]): > 20 µM
Activity [15]: inactive
Activity [16]: 50%

SMILES: O=C(NC[C@H](O)CN1CCc2ccccc2C1)c1cc(NC2COC2)ncn1
Activity [1]: inactive
inhibition (MDA-MB-468 [17]): Active
GI50 (MDA-MB-468 [2]): 0.23 µM
Activity [3]: inactive
Activity [5]: inactive
inhibition (MDA-MB-468 [18]): Active
inhibition (MDA-MB-468 [19]): Active; Compound Inhibited Greater Extent Than Ms4322
Activity [7]: inactive

SMILES: O=C1CCC(N2C(=O)c3ccc(NCCCCCCCCCC(=O)N4CCC(Nc5cc(C(=O)NC[C@H](O)CN6CCc7ccccc7C6)ncn5)CC4)cc3C2=O)C(=O)N1 (some centres not stated)
Activity [24]: 50%
Activity [25]: 50%
Activity (MCF-10A [26]): Toxic
Activity [27]: inactive
Activity [28]: 50%
Activity (MCF-10A [29]): 50%
Activity [30]: inactive

SMILES: Cc1ncsc1-c1ccc([C@H](CC(=O)NCCOCCOCCOCCOCCOCCC(=O)N2CCC(Nc3cc(C(=O)NC[C@H](O)CN4CCCCC4)ncn3)CC2)NC(=O)[C@@H]2C[C@@H](O)CN2C(=O)[C@@H](NC(=O)C2(F)CC2)C(C)(C)C)cc1
Activity [1]: inactive
GI50 (MDA-MB-468 [2]): > 20 µM
Activity [3]: inactive
Activity [4]: inactive
Activity [5]: inactive
Activity [6]: inactive
Activity [7]: inactive

SMILES: Cc1ncsc1-c1ccc(CNC(=O)[C@@H]2C[C@@H](O)CN2C(=O)[C@@H](NC(=O)C2(F)CC2)C(C)(C)C)c(OCC(=O)NCCOCCOCCOCCOCCC(=O)N2CCC(Nc3cc(C(=O)NC[C@H](O)CN4CCc5ccccc5C4)ncn3)CC2)c1
Activity [20]: inactive
Activity [21]: inactive
Activity [22]: Active
Activity [23]: inactive
